Measured values published in publication PMC9180949, “Design, Spectroscopy, and Assessment of Cholinesterase Inhibition and Antimicrobial Activities of Novel Coumarin–Thiadiazole Hybrids” (International Journal of Molecular Sciences, 2022).

How the values were obtained:
[1] = target: T1, BuChE; butyrylcholinesterase (EC 3.1.1.8) from equine serum (Equus caballus, UniProt P81908); assay: Ellman assay, absorbance at […] nm; format: biochemical; settings: read-out: BuChE / IC50 (μM) ± SD *
T1 construct: gene BCHE; commercial enzyme from equine serum, Sigma-Aldrich, EC 3.1.1.8

[2] = target: T2, AChE; acetylcholinesterase (E.C. 3.1.1.7) from Electrophorus electricus (Electrophorus electricus, UniProt O42275); assay: Ellman assay, absorbance at […] nm; format: biochemical; settings: read-out: AChE / IC50 (μM) ± SD *
T2 construct: commercial enzyme from Sigma-Aldrich, EC 3.1.1.7, purified from electric eel
T2 sequence (O42275 24-633): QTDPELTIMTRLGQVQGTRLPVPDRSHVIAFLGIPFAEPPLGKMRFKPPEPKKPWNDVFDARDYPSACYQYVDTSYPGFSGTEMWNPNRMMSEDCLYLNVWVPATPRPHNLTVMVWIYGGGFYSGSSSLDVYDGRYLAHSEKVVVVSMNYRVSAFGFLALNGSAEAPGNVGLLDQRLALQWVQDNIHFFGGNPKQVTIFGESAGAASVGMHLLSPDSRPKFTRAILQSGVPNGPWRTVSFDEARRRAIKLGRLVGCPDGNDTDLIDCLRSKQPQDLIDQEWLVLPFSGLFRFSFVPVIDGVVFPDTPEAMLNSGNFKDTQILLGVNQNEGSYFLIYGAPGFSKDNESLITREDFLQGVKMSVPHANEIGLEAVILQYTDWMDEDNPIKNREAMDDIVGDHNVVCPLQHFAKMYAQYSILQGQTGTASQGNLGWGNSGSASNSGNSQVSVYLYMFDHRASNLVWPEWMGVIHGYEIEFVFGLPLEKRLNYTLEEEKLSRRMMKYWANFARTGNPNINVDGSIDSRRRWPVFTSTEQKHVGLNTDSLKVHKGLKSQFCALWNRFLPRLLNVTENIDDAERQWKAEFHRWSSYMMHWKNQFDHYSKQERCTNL

T1 sequence (P81908 whole entry): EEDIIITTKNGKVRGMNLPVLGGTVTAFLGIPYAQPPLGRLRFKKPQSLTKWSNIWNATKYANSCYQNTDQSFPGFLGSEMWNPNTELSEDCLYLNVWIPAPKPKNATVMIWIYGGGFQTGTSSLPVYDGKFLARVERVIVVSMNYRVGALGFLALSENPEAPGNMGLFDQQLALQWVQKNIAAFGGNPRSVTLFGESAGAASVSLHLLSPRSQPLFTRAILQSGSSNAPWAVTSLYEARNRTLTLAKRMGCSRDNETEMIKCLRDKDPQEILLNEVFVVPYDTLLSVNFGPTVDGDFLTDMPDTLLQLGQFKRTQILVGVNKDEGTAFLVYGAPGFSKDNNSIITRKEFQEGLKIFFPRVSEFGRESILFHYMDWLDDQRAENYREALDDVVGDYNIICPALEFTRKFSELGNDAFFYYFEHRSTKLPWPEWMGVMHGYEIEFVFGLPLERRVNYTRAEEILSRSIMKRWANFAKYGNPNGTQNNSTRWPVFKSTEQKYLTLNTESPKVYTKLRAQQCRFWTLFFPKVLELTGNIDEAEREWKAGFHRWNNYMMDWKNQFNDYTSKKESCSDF

`CCN(CC)c1ccc2cc(-c3nnc(N)s3)c(=O)oc2c1` [compound 1, coumarin–thiadiazole hybrid 1] gave an IC50 [1] of 0.191 ± 0.024 µM and an IC50 [2] of 0.184 ± 0.011 µM.

With `COc1cccc2cc(-c3nnc(N)s3)c(=O)oc12` [compound 2, coumarin–thiadiazole hybrid 2] the IC50 [1] was 0.198 ± 0.039 µM and the IC50 [2] was 0.213 ± 0.009 µM.

For `CCOc1cccc2cc(-c3nnc(N)s3)c(=O)oc12` [compound 3, coumarin–thiadiazole hybrid 3], the IC50 [1] was 0.295 ± 0.024 µM and the IC50 [2] was 0.152 ± 0.003 µM.

`Nc1nnc(-c2cc3cc(Cl)ccc3oc2=O)s1` [compound 4, coumarin–thiadiazole hybrid 4] showed an IC50 [1] of 0.205 ± 0.014 µM and an IC50 [2] of 0.211 ± 0.01 µM.

`Nc1nnc(-c2cc3cc(Br)ccc3oc2=O)s1` [compound 5, coumarin–thiadiazole hybrid 5] gave an IC50 [1] of 0.261 ± 0.015 µM and an IC50 [2] of 0.183 ± 0.018 µM.

In the case of `Nc1nnc(-c2cc3cc([N+](=O)[O-])ccc3oc2=O)s1` [compound 6, coumarin–thiadiazole hybrid 6], the IC50 [1] is reported as 0.166 ± 0.022 µM and the IC50 [2] is reported as 0.198 ± 0.016 µM.

Compound `COc1cc([N+](=O)[O-])cc2cc(-c3nnc(N)s3)c(=O)oc12` [compound 7, coumarin–thiadiazole hybrid 7] has an IC50 [1] of 0.494 ± 0.024 µM and an IC50 [2] of 0.159 ± 0.015 µM.

For `Nc1nnc(-c2cc3ccccc3oc2=O)s1` [compound 8, coumarin–thiadiazole hybrid 8], the IC50 [1] was 0.392 ± 0.024 µM and the IC50 [2] was 0.199 ± 0.003 µM.

In the case of `Nc1nnc(-c2cc3cc(O)ccc3oc2=O)s1` [compound 9, coumarin–thiadiazole hybrid 9], the IC50 [1] is reported as 0.235 ± 0.034 µM and the IC50 [2] is reported as 0.196 ± 0.022 µM.

Compound `Nc1nnc(-c2cc3ccc(O)cc3oc2=O)s1` [compound 10, coumarin–thiadiazole hybrid 10] has an IC50 [1] of 0.38 ± 0.01 µM and an IC50 [2] of 0.2 ± 0.012 µM.

With `Nc1nnc(-c2cc3cccc(O)c3oc2=O)s1` [compound 11, coumarin–thiadiazole hybrid 11] the IC50 [1] was 0.202 ± 0.03 µM and the IC50 [2] was 0.165 ± 0.003 µM.

`Nc1nnc(-c2cc3ccc(O)c(O)c3oc2=O)s1` [compound 12, coumarin–thiadiazole hybrid 12] gave an IC50 [1] of 0.264 ± 0.017 µM and an IC50 [2] of 0.187 ± 0.015 µM.
